Experimental findings from patent publication US20250042912A1, “NOVEL NON-FLUORINATED QUINOLONE COMPOUND AND USE THEREOF” (priority 2021, published 2025) are described below.

≈ marks a conversion by molar mass, not a printed value.

Common to all, as to assay type: cell-based
Experiment [1] has as its system Propionibacterium acnes ATCC 11827. As to the kind of experiment: Minimum inhibitory concentration (MIC) assay, Propionibacterium acnes ATCC 11827. The note with it: Cutibacterium acnes, ATCC11827; anaerobic culture 35+/-2°C, 48 hours; read with naked eyes. As to the method:
(§1) On the day of the experiment, the compound in the flask was dissolved in 100% DMSO until the concentration of mother liquor was 0.4 mg/mL. If the mother liquor was not used on the same day, it was stored at −80° C. for future use. The compound mother liquor and standard antibiotics were subjected to 2-fold gradient dilution with corresponding solvents on a 96-microwell plate (V-bottom) to obtain 100× working solutions (Well 1 to Well 7) in sequence. Among them, the concentrations of the compound were 400 μg/mL, 200 μg/mL, 100 μg/mL, 50 μg/mL, 25 μg/mL, 12.5 μg/mL, 6.25 μg/mL, and 3.125 μg/mL. 100% DMSO was used as growth control (Well 8). As such, the compound motherplate was obtained. Two days before the experiment, anaerobic bacteria (Propionibacterium acnes) stored in a cryogenic tube at −80° C. were scribed on an MBA (Brucella Agar+5% (v/v) defibrillated sheep blood+[…] Hemin+1 μg/mLVitamin K1) plate. The anaerobic bacteria were placed in a 35+/−2° C. anaerobic incubator for 42-48 hours of cultivation. On the day of the experiment, the plate was taken out, clones were picked from the plate and suspended in physiological saline. Then, the turbidity of the bacterial suspension (containing 1.0-2.0×10^8 CFU/mL) was adjusted to OD600=0.2 by a turbidity meter. Then, the adjusted bacterial suspension was diluted to an appropriate concentration with the assay culture medium: about 5×10^5 CFU/mL for aerobic bacteria, and about 1×10^6 CFU/mL for anaerobic bacteria. As such, the inoculating solution was obtained. […] Therefore, the final assay concentrations of the compound were 4 μg/mL, 2 μg/mL, 1 μg/mL, 0.5 μg/mL, 0.25 μg/mL, 0.125 μg/mL, 0.06 μg/mL and 0.03 μg/mL. The total volume of each well on the assay plate was 200 μL: containing 1% DMSO, about 5×10^5 CFU/mL of aerobic bacteria and about 1×10^6 CFU/mL of anaerobic bacteria. All assay plates for aerobic bacteria were aerobically cultured at 35+/−2° C. for 16 to 20 hours, and all assay plates for anaerobic bacteria were anaerobically cultured in an anaerobic incubator at 35+/−2° C. for 48 hours. Note: for anaerobic bacteria, both the preparation of bacterial solution in step 2 and the inoculation of bacterial solution in step 3 were operated in an anaerobic workstation.

For experiment [2], the system named is Propionibacterium acnes ATCC 6919. As to the kind of experiment: Minimum inhibitory concentration (MIC) assay, Propionibacterium acnes ATCC 6919. The note with it: Cutibacterium acnes, ATCC6919; anaerobic culture 35+/-2°C, 48 hours; read with naked eyes. On the procedure:
as §1

In experiment [3] the test system is Staphylococcus epidermidis ATCC 35984. Nature of the experiment: Minimum inhibitory concentration (MIC) assay, Staphylococcus epidermidis ATCC 35984. The note with it: ATCC35984, aerobic culture 35+/-2°C, 16 to 20 hours, read with naked eyes. On the procedure: On the day of the experiment, the compound in the flask was dissolved in 100% DMSO until the concentration of mother liquor was 0.4 mg/mL. If the mother liquor was not used on the same day, it was stored at −80° C. for future use.
The compound mother liquor and standard antibiotics were subjected to 2-fold gradient dilution with corresponding solvents on a 96-microwell plate (V-bottom) to obtain 100× working solutions (Well 1 to Well 7) in sequence. Among them, the concentrations of the compound were 400 μg/mL, 200 μg/mL, 100 μg/mL, 50 μg/mL, 25 μg/mL, 12.5 μg/mL, 6.25 μg/mL, and 3.125 μg/mL. 100% DMSO was used as growth control (Well 8). As such, the compound motherplate was obtained.
One day before the experiment, aerobic bacteria (Staphylococcus epidermidis) stored in a cryogenic tube at −80° C. were scribed on an MHA (Cation-adjusted Mueller-Hinton agar) plate. The aerobic bacteria were placed in a 35+/−2° C. incubator for 18-24 hours of aerobic cultivation.
On the day of the experiment, the plate was taken out, clones were picked from the plate and suspended in physiological saline. Then, the turbidity of the bacterial suspension (containing 1.0-2.0×10^8 CFU/mL) was adjusted to OD600=0.2 by a turbidity meter. Then, the adjusted bacterial suspension was diluted to an appropriate concentration with the assay culture medium: about 5×10^5 CFU/mL for aerobic bacteria, and about 1×10^6 CFU/mL for anaerobic bacteria. As such, the inoculating solution was obtained.
2 μl of 2-fold series dilution of 100× high-concentration working solution was transferred from a compound mother plate (prepared in step 1) to a round-bottom 96-well plate, and then 198 μL of bacterial inoculating solution (prepared in step 2) was added to each well to obtain an MIC assay plate. Therefore, the final assay concentrations of the compound were 4 μg/mL, 2 μg/mL, 1 μg/mL, 0.5 μg/mL, 0.25 μg/mL, 0.125 μg/mL, 0.06 μg/mL and 0.03 μg/mL. The total volume of each well on the assay plate was 200 μL: containing 1% DMSO, about 5×10^5 CFU/mL of aerobic bacteria and about 1×10^6 CFU/mL of anaerobic bacteria.
All assay plates for aerobic bacteria were aerobically cultured at 35+/−2° C. for 16 to 20 hours, and all assay plates for anaerobic bacteria were anaerobically cultured in an anaerobic incubator at 35+/−2° C. for 48 hours.

For the compound `CN(C)c1cc2c(cn1)-c1ccc3c(=O)c(C(=O)O)cn(C4CC4)c3c1COC2` [Compound 6], the MIC in experiment [1] worked out at 0.03 µg/mL (≈ 0.0766 µM); in experiment [2], 0.03 µg/mL (≈ 0.0766 µM); in experiment [3], 0.06 µg/mL (≈ 0.153 µM).

Broadly, the MIC is the lowest concentration found to suppress growth. Read a low MIC as greater potency.
